Each structure is given as a SMILES string. Where only a bound is given, the exact number is not on record here.

In this test the target is T1, hGPR120 (Homo sapiens, UniProt Q5NUL3).
T1 construct: expressed in transfected cells; host or cells: CHO-K1
T1 sequence (Q5NUL3 1-361): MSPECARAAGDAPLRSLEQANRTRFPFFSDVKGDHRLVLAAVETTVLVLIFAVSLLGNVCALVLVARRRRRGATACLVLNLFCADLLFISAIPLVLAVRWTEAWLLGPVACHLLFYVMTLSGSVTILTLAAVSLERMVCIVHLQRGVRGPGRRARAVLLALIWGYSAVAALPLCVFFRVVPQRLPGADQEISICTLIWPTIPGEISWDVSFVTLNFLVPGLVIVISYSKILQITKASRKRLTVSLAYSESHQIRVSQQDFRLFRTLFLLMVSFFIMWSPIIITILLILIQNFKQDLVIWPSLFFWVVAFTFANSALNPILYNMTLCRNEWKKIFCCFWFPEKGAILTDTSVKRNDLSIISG
The test can be described thus: Measurement of Activity of GPR120 Agonist (Cell-Based Assay), Calcium 5 dye fluorescence. The conditions noted are these: CHO-K1 cells expressing Ga16 and hGPR120. The essentials: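 CHO-K1 cells co-expressing Gα16 and hGPR120, plated 18 h, loaded 1 h at 37°C with Calcium 5 dye. Serially diluted agonists added at 0.5% DMSO final; fluorescence read at Ex 485/Em 525 nm and expressed as relative % of DMSO-only signal.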

With `CC(C)Sc1ncccc1-c1cc(F)c(N2CC(CCC(=O)O)C2)c(F)c1` [Example 133, 3-[1-[2,6-difluoro-4-(2-isopropylsulfanyl-3-pyridyl)phenyl]azetidin-3-yl]propanoic acid], the EC50 (as a rule, the midpoint of the concentration-response curve) fell in the range of 200 to 2000 nM.

As to `CC(C)Sc1cccc(-c2cc(F)c(N3CCC(CC(=O)O)C3)c(F)c2)n1` (stereo not shown) [Example 125, 2-[1-[2,6-difluoro-4-(6-isopropylsulfanyl-2-pyridyl)phenyl]pyrrolidin-3-yl]acetic acid], the EC50 is under 200 nM. To `O=C(O)CC1CCN(c2c(F)cc(-c3cccc(CC4CCC4)n3)cc2F)CC1` [Example 375, 2-[1-[4-[6-(cyclobutylmethyl)-2-pyridyl]-2,6-difluoro-phenyl]-4-piperidyl]acetic acid] belongs 200 to 2000 nM. As for `CC(C)Oc1ncccc1-c1cc(F)c(N(C)CCCC(=O)O)c(F)c1` [Example 214, 4-{[2,6-difluoro-4-(2-isopropoxy-pyridin-3-yl)-phenyl]-methyl-amino}-butyric acid], the EC50 lay in the range of 200 to 2000 nM. With `O=C(O)C[C@H]1CCN(c2c(F)cc(-c3cccnc3OC3CCCC3)cc2F)C1` [Example 135, 2-[(3R)-1-[4-[2-(cyclopentoxy)-3-pyridyl]-2,6-difluoro-phenyl]pyrrolidin-3-yl]acetic acid] the figure was under 200 nM; with `CN(CCCC(=O)O)c1c(F)cc(-c2cccc3c2OC2(CCCC2)O3)cc1F` [Example 449, 4-(2,6-difluoro-N-methyl-4-spiro[1,3-benzodioxol-2,1′-cyclopentan]-4-yl-anilino)butanoic acid], under 200 nM; with `O=C(O)CCC1CCc2cc(-c3cccnc3OC3CCCC3)ccc2S1` (stereo not shown) [Example 271, 3-[6-(2-cyclopentoxy-pyridin-3-yl)-thiochroman-2-yl]-propionic acid], under 200 nM. For `CN(CCCC(=O)O)c1c(F)cc(-c2cccnc2OCC2CCC2)cc1F` [Example 218, 4-{[4-(2-cyclobutylmethoxy-pyridin-3-yl)-2,6-difluoro-phenyl]-methyl-amino}-butyric acid], the EC50 is under 200 nM. As to `O=C(O)CC1CCN(c2c(F)cc(-c3cncc(OC4CCC4)n3)cc2F)CC1` [Example 329, 2-[1-[4-[6-(cyclobutoxy)pyrazin-2-yl]-2,6-difluoro-phenyl]-4-piperidyl]acetic acid], the EC50 was under 200 nM.

Consider `O=C(O)CCc1ccc2cc(-c3cccnc3OC3CCCC3)ccc2c1` [Example 150, 3-[6-(2-cyclopentyloxy-pyridin-3-yl)-naphthalen-2-yl]-propanoic acid], for which the EC50 was under 200 nM. With `CN(Cc1cc(O)no1)c1ccc(-c2cccc(OC3CCC3)n2)cc1` [Example 417, 5-({[4-(6-cyclobutoxy-pyridin-2-yl)-phenyl]-methyl-amino}-methyl)-isoxazol-3-ol] the figure was under 200 nM; with `O=C(O)CCC1CC1c1c(F)cc(-c2cccnc2OC2CCC2)cc1F` (stereo not shown) [Example 188, 3-{2-[4-(2-cyclobutoxy-pyridin-3-yl)-2,6-difluoro-phenyl]-cyclopropyl}-propanoic acid], under 200 nM. To `O=C(O)CC1CCN(c2c(F)cc(-c3ncnc4c3CCC4)cc2F)CC1` [Example 382, 2-[1-[4-(6,7-dihydro-5H-cyclopenta[d]pyrimidin-4-yl)-2,6-difluoro-phenyl]-4-piperidyl]acetic acid] belongs over 20000 nM. To `CC1(C)Cc2cccc(-c3cc(F)c(OCCCC(=O)O)c(F)c3)c2O1` [Example 22, 4-[4-(2,2-dimethyl-2,3-dihydro-benzofuran-7-yl)-2,6-difluoro-phenoxy]-butyric acid] belongs under 200 nM. On to `Cc1cc2cc(Cl)cc(-c3cc(F)c(OCCCC(=O)O)c(F)c3)c2o1` [Example 518, 4-[4-(5-chloro-2-methyl-benzofuran-7-yl)-2,6-difluoro-phenoxy]-butyric acid], for which the EC50 was under 200 nM. As for `O=C(O)CCCOc1ccc(-c2cccnc2OC2CCCC2)cc1F` [Example 234, 4-[4-(2-cyclopentyloxy-pyridin-3-yl)-2-fluoro-phenoxy]-butyric acid], the EC50 is under 200 nM. To `O=C(O)CC1CCN(c2ccc(-c3cccc(OC4CCC4)n3)cc2F)CC1` [Example 320, 2-[1-[4-[6-(cyclobutoxy)-2-pyridyl]-2-fluoro-phenyl]-4-piperidyl]acetic acid] belongs 200 to 2000 nM; to `O=C(O)CCCOc1c(F)cc(-n2ccc3cc(OC4CCC4)ccc32)cc1F` [Example 477, 4-[4-[5-(cyclobutoxy)indol-1-yl]-2,6-difluoro-phenoxy]butanoic acid], 200 to 2000 nM. Consider `CC(C)Cc1ccnc(-c2cc(F)c(N3CCC(CC(=O)O)CC3)c(F)c2)n1` [Example 365, 2-[1-[2,6-difluoro-4-(4-isobutylpyrimidin-2-yl)phenyl]-4-piperidyl]acetic acid], for which the concentration for a half-maximal effect (EC50) lay in the range of 200 to 2000 nM. As for `COCCCOc1cc(C)nc(-c2cc(F)c(N3CCC(CC(=O)O)CC3)c(F)c2)n1` [Example 601, (1-{2,6-difluoro-4-[4-(3-methoxy-propoxy)-6-methyl-pyrimidin-2-yl]-phenyl}-piperidin-4-yl)-acetic acid], the EC50 is 200 to 2000 nM. To `O=C(O)CCCOc1c(F)cc(-c2cccc(OCC3CCC3)c2)cc1F` [Example 521, 4-(3′-cyclobutylmethoxy-3,5-difluoro-biphenyl-4-yloxy)-butyric acid] belongs under 200 nM; to `Oc1cc(CCc2c(F)cc(-c3cccnc3OC3CCCC3)cc2F)on1` [Example 87, 5-[2-[4-[2-(cyclopentoxy)-3-pyridyl]-2,6-difluoro-phenyl]ethyl]isoxazol-3-ol], under 200 nM; to `CC(C)Sc1ncccc1-c1cc(F)c(N2CCC3(CC2)CC3C(=O)O)c(F)c1` (stereo not shown) [Example 110, 6-[2,6-difluoro-4-(2-isopropylsulfanyl-3-pyridyl)phenyl]-6-azaspiro[2.5]octan-2-carboxylic acid], 200 to 2000 nM. To `O=C(O)CCCOc1c(F)cc(-c2cccc(S(=O)(=O)C3CCC3)c2)cc1F` [Example 416, 4-(3′-cyclobutanesulfonyl-3,5-difluoro-biphenyl-4-yloxy)-butyric acid] belongs 200 to 2000 nM; to `O=C(O)CC1CCN(c2c(F)cc(-c3nccc(Oc4cccc(C(F)(F)F)c4)n3)cc2F)CC1` [Example 611, 2-[1-[2,6-difluoro-4-[4-[3-(trifluoromethyl)phenoxy]pyrimidin-2-yl]phenyl]-4-piperidyl]acetic acid], 200 to 2000 nM. For `O=C(O)CC1CCN(c2c(F)cc(-c3nccc(Oc4ccccn4)n3)cc2F)CC1` [Example 609, 2-[1-[2,6-difluoro-4-[4-(2-pyridyloxy)pyrimidin-2-yl]phenyl]-4-piperidyl]acetic acid], the EC50 was 200 to 2000 nM. To `O=C(O)CCCCc1ccc(-c2cccnc2OC2CCCC2)cc1F` [Example 244, 5-[4-(2-cyclopentyloxy-pyridin-3-yl)-2-fluoro-phenyl]-pentanoic acid] belongs under 200 nM.

Consider `O=C(O)CC1CCN(c2c(F)cc(-c3cncc(OCC4CC4)n3)cc2F)C1` (stereo not shown) [Example 580, {1-[4-(6-cyclopropylmethoxy-pyrazin-2-yl)-2,6-difluoro-phenyl]-pyrrolidin-3-yl}-acetic acid], for which the EC50 was under 200 nM. With `CC(CCCCC(=O)O)c1c(F)cc(-c2cccnc2SC2CCCC2)cc1F` (stereo not shown) [Example 238, 6-[4-(2-cyclopentylsulfanyl-pyridin-3-yl)-2,6-difluoro-phenyl]-heptanoic acid] the figure was under 200 nM.

As for `O=C(O)CCCOc1c(F)cc(-c2ccc3ccn(CC4CC4)c3c2)cc1F` [Example 559, 4-[4-(1-cyclopropylmethyl-1H-indol-6-yl)-2,6-difluoro-phenoxy]-butanoic acid], the EC50 is under 200 nM. Take `CC(C)Oc1ncccc1-c1cc(F)c(C(C)CCCC(=O)O)c(F)c1` (stereo not shown) [Example 46, 5-[2,6-difluoro-4-(2-isopropoxy-3-pyridyl)phenyl]hexanoic acid]: the EC50 was under 200 nM.

Turning to `O=C(O)CC1CCN(c2c(F)cc(-c3cncc(OCC4CC4)n3)cc2F)CC1` [Example 333, 2-[1-[4-[6-(cyclopropylmethoxy)pyrazin-2-yl]-2,6-difluoro-phenyl]-4-piperidyl]acetic acid], the EC50 was under 200 nM. To `COc1ccc(-c2cc(F)c(N(C)CCCC(=O)O)c(F)c2)nc1OCC1CC1` [Example 461, 4-[4-[6-(cyclopropylmethoxy)-5-methoxy-2-pyridyl]-2,6-difluoro-N-methyl-anilino]butanoic acid] belongs 200 to 2000 nM; to `O=C(O)CCCOc1ccc(-c2cccc(OC3CCC3)n2)cc1F` [Example 538, 4-[4-(6-cyclobutoxy-pyridin-2-yl)-2-fluoro-phenoxy]-butyric acid], under 200 nM; to `O=C(O)CCc1ccc2cc(-c3cccc(Oc4ccccc4F)n3)ccc2c1` [Example 152, 3-{6-[6-(2-fluoro-phenoxy)-pyridin-2-yl]-naphthalen-2-yl}-propanoic acid], 200 to 2000 nM. Regarding `CC(C)Sc1ncccc1-c1cc(F)c(-n2cc(CCC(=O)O)cn2)c(F)c1` [Example 131, 3-[1-[2,6-difluoro-4-(2-isopropylsulfanyl-3-pyridyl)phenyl]pyrazol-4-yl]propanoic acid], the concentration for a half-maximal effect (EC50) was 2000 to 20000 nM. To `O=C(O)CCC1CC1c1c(F)cc(-c2cccnc2SC2CCC2)cc1F` (stereo not shown) [Example 176, 3-{2-[4-(2-cyclobutylsulfanyl-pyridin-3-yl)-2,6-difluoro-phenyl]-cyclopropyl}-propanoic acid] belongs under 200 nM.

The values are drawn from patent US11261186B2, “Biaryl derivative as GPR120 agonist” (LG CHEM, LTD., priority 2014, dated 2022).
